Laboratory results taken from US9833497B2, “Human originated EGF domain proteins and use of the same” (CHENGDU SOURCEBIO LIMITED-LIABILITY COMPANY, priority 2013, dated 2017).

Experiments:
Type in all cases: cell-based
[1] = tested on: E. coli DH5α; assay: Antibacterial activity: MIC and growth curve against E. coli DH5α in 96-well plate; settings: minimal inhibitory concentration against E. coli DH5α; 96-well plate, 5×10^5 CFU/mL, 37° C., judged after 8 h
In short: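 Log-phase DH5α (OD600 about 0.5, 37° C, 185 rpm in LB) was pelleted, resuspended in fresh LB and seeded at 5×10^5 CFU/mL with recombinant protein at 50, 25 and 12.5 μg/mL (two-fold series), in triplicate. Plates were shaken at 175 rpm, 37° C, and OD600 was read every 30 min. MIC was the lowest concentration with no growth.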

[2] = tested on: E. coli BL21; assay: MIC against Gram-negative bacteria: E. coli BL21; settings: 5×10^5 CFU/mL
In short: (§1)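 Read-out is absence of bacterial growth, with MIC set at the lowest recombinant protein concentration achieving it. Bacteria, pre-grown in LB to McFarland 0.5 and resuspended, were exposed at 5×10^5 CFU/mL to two-fold diluted human EGF domain proteins in triplicate at 37° C, 175 rpm.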

[3] = tested on: Pseudomonas aeruginosa; assay: MIC against Gram-negative bacteria: Pseudomonas aeruginosa; settings: 5×10^5 CFU/mL
In short: as §1

[4] = tested on: Klebsiella pneumonia; assay: MIC against Gram-negative bacteria: Klebsiella pneumonia; settings: 5×10^5 CFU/mL
In short: as §1

[5] = tested on: Enterobacter cloacae; assay: MIC against Gram-negative bacteria: Enterobacter cloacae; settings: 5×10^5 CFU/mL
In short: as §1

[6] = tested on: Aeromonas hydrophila; assay: MIC against Gram-negative bacteria: Aeromonas hydrophila; settings: 5×10^5 CFU/mL
In short: as §1

[7] = tested on: Citrobacter diversus; assay: MIC against Gram-negative bacteria: Citrobacter diversus; settings: 5×10^5 CFU/mL
In short: as §1

[8] = tested on: Moraxella catarrhalis; assay: MIC against Gram-negative bacteria: Moraxella catarrhalis; settings: 5×10^5 CFU/mL
In short: as §1

[9] = tested on: Proteus mirabilis; assay: MIC against Gram-negative bacteria: Proteus mirabilis; settings: 5×10^5 CFU/mL
In short: as §1

[10] = tested on: Proteus vulgaris; assay: MIC against Gram-negative bacteria: Proteus vulgaris; settings: 5×10^5 CFU/mL
In short: as §1

[11] = tested on: Serratia marcescens; assay: MIC against Gram-negative bacteria: Serratia marcescens; settings: 5×10^5 CFU/mL
In short: as §1

[12] = E. coli BL21, 10 h cultivation at 37° C.
[13] = 10 h cultivation at 37° C., two-fold serial dilution

PRT775 (SSLKCPDACNAQHKQCLIKKSGGAPECACVPGYQEDANGNCQ; listed as Homo sapiens)
12.5 µg/mL: MIC [1] | MIC (μg/mL) K. pneumonia ([4]; 10 h cultivation at 37° C.) | MIC (μg/mL) A. hydrophila ([6]; 10 h cultivation at 37° C.) | MIC (μg/mL) M. catarrhalis ([8]; 10 h cultivation at 37° C.) | MIC (μg/mL) P. vulgaris ([10]; 10 h cultivation at 37° C.)
25 µg/mL: MIC (μg/mL) E. coli BL21 [2, 12]
50 µg/mL: MIC (μg/mL) P. aeruginosa ([3]; 10 h cultivation at 37° C.) | MIC (μg/mL) E. cloacae ([5]; 10 h cultivation at 37° C.) | MIC (μg/mL) C. diversus ([7]; 10 h cultivation at 37° C.) | MIC (μg/mL) P. mirabilis ([9]; 10 h cultivation at 37° C.) | MIC (μg/mL) S. marcescens ([11]; 10 h cultivation at 37° C.)

PRT695 (DVDECHRVPPPCDLGRCENTPGSFLCVCPAGYQAAPHGASCQ; listed as Homo sapiens)
12.5 µg/mL: MIC E. coli BL21 ([2]; 96-well plate, 37° C., 10 h) | MIC E. cloacae ([5]; 96-well plate, 37° C., 10 h) | MIC P. mirabilis ([9]; 96-well plate, 37° C., 10 h) | MIC S. marcescens ([11]; 96-well plate, 37° C., 10 h)
50 µg/mL: MIC C. diversus ([7]; 96-well plate, 37° C., 10 h) | MIC M. catarrhalis ([8]; 96-well plate, 37° C., 10 h) | MIC P. vulgaris ([10]; 96-well plate, 37° C., 10 h)
25 µg/mL: MIC [1] | MIC P. aeruginosa ([3]; 96-well plate, 37° C., 10 h) | MIC K. pneumonia ([4]; 96-well plate, 37° C., 10 h) | MIC A. hydrophila ([6]; 96-well plate, 37° C., 10 h)

PRT1061 (KRDPCLRKYKDFCIHGECKYVKELRAPSCICHPGYHGERCH; listed as Homo sapiens)
12.5 µg/mL: MIC [1] | MIC E. coli BL21 [2, 13] | MIC P. aeruginosa [3, 13] | MIC K. pneumonia [4, 13] | MIC E. cloacae [5, 13] | MIC A. hydrophila [6, 13] | MIC C. diversus [7, 13] | MIC P. vulgaris [10, 13]
50 µg/mL: MIC M. catarrhalis [8, 13]
25 µg/mL: MIC P. mirabilis [9, 13] | MIC S. marcescens [11, 13]

PRT1287 (EPCRKLYCLHGICQPNATPGPMCHCEAGWVGLHCD; listed as Homo sapiens)
25 µg/mL: MIC against E. coli BL21 ([2]; E. coli BL21, 96-well plate, 37° C., 10 h)
12.5 µg/mL: MIC against P. aeruginosa ([3]; Pseudomonas aeruginosa, 96-well plate, 37° C., 10 h) | MIC against E. cloacae ([5]; Enterobacter cloacae, 96-well plate, 37° C., 10 h) | MIC against C. diversus ([7]; Citrobacter diversus, 96-well plate, 37° C., 10 h) | MIC against P. mirabilis ([9]; Proteus mirabilis, 96-well plate, 37° C., 10 h)
50 µg/mL: MIC [1] | MIC against K. pneumonia ([4]; Klebsiella pneumonia, 96-well plate, 37° C., 10 h) | MIC against A. hydrophila ([6]; Aeromonas hydrophila, 96-well plate, 37° C., 10 h) | MIC against M. catarrhalis ([8]; Moraxella catarrhalis, 96-well plate, 37° C., 10 h) | MIC against P. vulgaris ([10]; Proteus vulgaris, 96-well plate, 37° C., 10 h) | MIC against S. marcescens ([11]; Serratia marcescens, 96-well plate, 37° C., 10 h)

PRT205 (SAHVCSQQCSGHGVCDSRNKCHCSPGYKPPNCQ; listed as Homo sapiens)
25 µg/mL: MIC (μg/mL) K. pneumonia ([4]; 10 h cultivation at 37° C.) | MIC (μg/mL) A. hydrophila ([6]; 10 h cultivation at 37° C.) | MIC (μg/mL) M. catarrhalis ([8]; 10 h cultivation at 37° C.) | MIC (μg/mL) P. vulgaris ([10]; 10 h cultivation at 37° C.)
12.5 µg/mL: MIC [1] | MIC (μg/mL) E. coli BL21 [2, 12] | MIC (μg/mL) P. aeruginosa ([3]; 10 h cultivation at 37° C.) | MIC (μg/mL) E. cloacae ([5]; 10 h cultivation at 37° C.) | MIC (μg/mL) C. diversus ([7]; 10 h cultivation at 37° C.) | MIC (μg/mL) P. mirabilis ([9]; 10 h cultivation at 37° C.) | MIC (μg/mL) S. marcescens ([11]; 10 h cultivation at 37° C.)
